In experiment [1] the target is T1, PDK1 (Homo sapiens, UniProt O15530).
T1 construct: His6 (N)
T1 sequence (O15530 51-556 limits assumed): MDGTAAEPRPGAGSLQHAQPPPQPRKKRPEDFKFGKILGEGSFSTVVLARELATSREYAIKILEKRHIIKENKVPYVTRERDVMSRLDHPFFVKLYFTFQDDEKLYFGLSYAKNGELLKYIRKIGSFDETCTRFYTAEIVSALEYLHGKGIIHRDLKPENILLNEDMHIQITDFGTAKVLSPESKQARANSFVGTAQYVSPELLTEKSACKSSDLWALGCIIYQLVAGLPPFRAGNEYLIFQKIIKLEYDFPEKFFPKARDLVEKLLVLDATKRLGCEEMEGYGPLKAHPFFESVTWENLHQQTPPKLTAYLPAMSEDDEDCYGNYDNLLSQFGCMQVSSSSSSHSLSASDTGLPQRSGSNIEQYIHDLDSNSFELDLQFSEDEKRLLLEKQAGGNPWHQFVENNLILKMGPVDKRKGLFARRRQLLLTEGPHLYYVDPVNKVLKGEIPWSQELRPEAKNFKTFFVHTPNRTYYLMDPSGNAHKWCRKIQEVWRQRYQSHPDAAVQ
As to the kind of experiment: Test for the inhibition of PDK1 (flashplate, 33P-ATP). The conditions noted are these: His6-PDK1 (1-50) 3.4 nM, 4 μM ATP, 30° C., 60 min; read-out: IC50 [PDK1] biochemical. As to the method: The experimental batches are carried out in a flashplate system with 384 wells/microtitration plate.
In each case, the PDK1 sample His6-PDK1 (1-50) (3.4 nM), the PDK1 substrate biotin-bA-bA-[…] (400 nM), 4 μM ATP (with 0.2μ Ci of ^33P-ATP/well) and the test substance in 50 μl of conventional experimental solution per well are incubated at 30° C. for 60 min. The test substances are employed in corresponding concentrations (if desired in a dilution series). The control is carried out without test substance. The reaction is stopped using standard methods and washed. The activity of the kinase is measured via the incorporated radioactivity in top count. In order to determine the non-specific kinase reaction (blank value), the experimental batches are carried out in the presence of 100 nM staurosporin.
The radioactivity (decompositions per minute) of the blank value (no use of test substance in the presence of staurosporin) is subtracted from all other radioactivity values. The controls (kinase activity without test substance) are set equal to 100 percent and all other radioactivity values (after subtracting the blank value) are expressed set in relation thereto (for example in % of the control).
IC50 values (50% inhibition) are determined with the aid of statistics programmes, such as, for example, RS1.

Experiment [2] concerns the target T2, PDK1 (Homo sapiens, UniProt O15530).
T2 construct: endogenous in cells; host or cells: PC3 cells
T2 sequence (O15530 1-556): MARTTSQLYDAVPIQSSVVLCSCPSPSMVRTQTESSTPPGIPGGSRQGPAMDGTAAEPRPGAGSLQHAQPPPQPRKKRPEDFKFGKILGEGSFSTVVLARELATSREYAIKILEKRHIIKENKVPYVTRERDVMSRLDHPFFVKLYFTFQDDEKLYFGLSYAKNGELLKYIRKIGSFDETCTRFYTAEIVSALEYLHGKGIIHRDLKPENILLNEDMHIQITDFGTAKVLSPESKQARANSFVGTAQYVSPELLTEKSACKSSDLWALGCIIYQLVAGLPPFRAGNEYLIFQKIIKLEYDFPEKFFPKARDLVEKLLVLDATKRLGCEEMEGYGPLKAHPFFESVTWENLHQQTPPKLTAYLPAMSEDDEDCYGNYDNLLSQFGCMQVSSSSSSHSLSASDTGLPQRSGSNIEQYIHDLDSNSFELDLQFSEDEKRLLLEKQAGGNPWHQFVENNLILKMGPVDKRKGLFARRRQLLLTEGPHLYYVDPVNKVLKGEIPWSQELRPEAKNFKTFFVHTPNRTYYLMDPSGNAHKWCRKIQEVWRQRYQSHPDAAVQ
Kind of experiment: Cellular testing of PDK1 kinase inhibitors in PC3 cells (Luminex, phospho-T308-PKB). Type of experiment: cell-based. The conditions noted are these: 30 min, serum-free. The procedure: Method for the Cellular Testing of PDK1 Kinase Inhibitors in PC3 Cells.
The cellular assay for the determination of the PDK1 kinase activity is carried out as a Luminex assay in the 96-well format. PC3 cells are sown at 20,000 cells per well in 100 μl of medium (45% of […]/45% of Ham's F12/10% of FCS) and incubated on the following day for 30 min with a serial dilution of the test substance (7 concentrations) under serum-free conditions. The cells are subsequently lysed using 90 μl of lysis buffer (20 mM tris/HCl pH 8.0, 150 mM NaCl, 1% of NP40, 10% of glycerol, 1% of phosphatase inhibitor I, 1% of phosphatase inhibitor II, 0.1% of protease inhibitor cocktail III, 0.01% of benzonase) per well, and the lysates are separated off from insoluble cell constituents by means of centrifugation through a 96-well filter plate (0.65 μm). The lysates are incubated overnight at 4° C. with shaking with Luminex beads to which an anti-total PKB antibody is coupled. The detection is carried out on the following day by addition of a phospho-T308-PKB antibody and a species-specific […] secondary antibody. The detection of phospho T308-PKB is carried out by measurement in a Luminex100 instrument by determination of 100 events per cavity in a measurement time of 60 sec. As pharmacological blank, the signals obtained from cells which have been treated with 10 μM staurosporin are subtracted from all other batches. The control value used for maximum phosphorylation of PKB on T308 are the signals from cells which have only been treated with the solvent (0.3% of DMSO). The values of the batches treated with test substance are calculated therefrom as percentage of control, and IC50 values are determined by means of RS 1.

IC50 data for 16 compounds are collected here from patent US20130245355A1, “3-HETARYL-SUBSTITUTED PYRROLO[2,3 B]PYRIDINE DERIVATIVES AS PDK1 INHIBITORS” (MERCK PATENT GMBH, priority 2010, published 2013).

The structures appear in SMILES notation.

`Cn1cc(-c2cnc3[nH]cc(-c4cc(C(O)c5ccccc5)[nH]n4)c3c2)cn1` (centres unmarked) [A74]: the IC50 in experiment [1] and in experiment [2] was 0.5 to 1000 nM throughout.
In the case of `Cn1cc(-c2cnc3[nH]cc(-c4cc(C(O)c5ccccc5)on4)c3c2)cn1` (centres unmarked) [A75], the IC50 in experiment [1] and in experiment [2] was 0.5 to 1000 nM in each case.
For the compound `Cn1cc(-c2cnc3[nH]cc(-c4nc(C(C)(O)c5cccc(F)c5F)no4)c3c2)cn1` (centres unmarked) [A78], the half-maximal inhibitory concentration (IC50) in experiment [1] and in experiment [2] was 0.5 to 1000 nM each time.
As for `Cn1cc(-c2cnc3[nH]cc(-c4nc(C(C)(O)c5ccccc5Cl)no4)c3c2)cn1` (centres unmarked) [A79], the IC50 (in general, the point on the concentration scale where inhibition reaches its midpoint) in experiment [1] fell in the range of 1000 to 10000 nM; in experiment [2], 0.5 to 1000 nM.
Turning to `Cn1cc(-c2cnc3[nH]cc(-c4nc(C(C)(O)c5cccc(Cl)c5)no4)c3c2)cn1` (centres unmarked) [A80], the concentration for half-maximal inhibition (IC50) in experiment [1] and in experiment [2] was 0.5 to 1000 nM in each case.
As for `COC(c1ccccc1)c1nnc(-c2c[nH]c3ncc(-c4cnn(C)c4)cc23)o1` (centres unmarked) [A81], the 50% inhibitory concentration (IC50) in experiment [1] fell in the range of 0.5 to 1000 nM; in experiment [2], 1000 to 10000 nM.
Turning to `Cn1cc(-c2cnc3[nH]cc(-c4nnc(C(F)c5cccc(F)c5)o4)c3c2)cn1` (centres unmarked) [A82], the IC50 in experiment [1] and in experiment [2] was 1000 to 10000 nM each time.
As for `Cn1cc(-c2cnc3[nH]cc(-c4nnc(C5(c6ccccc6Cl)CC5)o4)c3c2)cn1` [A83], the IC50 in experiment [1] and in experiment [2] was 0.5 to 1000 nM in each case.
As for `Cn1cc(-c2cnc3[nH]cc(-c4cc(C(O)c5ccccc5)n(C)n4)c3c2)cn1` (centres unmarked) [A84], the 50% inhibitory concentration (IC50) in experiment [1] is 0.5 to 1000 nM; in experiment [2], 1000 to 10000 nM.
Regarding `Cc1cc(C2(c3nnc(-c4c[nH]c5ncc(-c6cnn(C)c6)cc45)o3)CC2)ccn1` [A85, 5-(1-methyl-1H-pyrazol-4-yl)-3-{5-[1-(2-methylpyridin-4-yl)-cyclopropyl]-1,3,4-oxadiazol-2-yl}-1H-pyrrolo[2,3-b]pyridine], the IC50 in experiment [1] and in experiment [2] was 1000 to 10000 nM throughout.
Take `Cn1cc(-c2cnc3[nH]cc(-c4nnc(C(O)c5ccccc5C(F)(F)F)o4)c3c2)cn1` (centres unmarked) [A86]: the IC50 in experiment [1] and in experiment [2] was 0.5 to 1000 nM throughout.
For `Cn1cc(-c2cnc3[nH]cc(-c4n[nH]c(C(O)c5ccccc5Cl)n4)c3c2)cn1` (centres unmarked) [A87, (2-chlorophenyl)-{5-[5-(1-methyl-1H-pyrazol-4-yl)-1H-pyrrolo[2,3-b]pyridin-3-yl]-2H-1,2,4-triazol-3-yl}-methanol], the figures for the IC50 in experiment [1] and in experiment [2] were 0.5 to 1000 nM and 1000 to 10000 nM, respectively.
For `Cn1cc(-c2cnc3[nH]cc(-c4cc(C(C)(O)c5ccccc5Cl)[nH]n4)c3c2)cn1` (centres unmarked) [A88], in that order: 0.5 to 1000 nM and 1000 to 10000 nM.
As to `Cn1cc(-c2cnc3[nH]cc(-c4cc(C(C)(O)c5ccccc5Cl)on4)c3c2)cn1` (centres unmarked) [A89], the 50% inhibitory concentration (IC50) in experiment [1] and in experiment [2] was 0.5 to 1000 nM throughout.
Take `Cn1cc(-c2cnc3[nH]cc(-c4nnc(C5(c6ccnc(Cl)c6)CC5)o4)c3c2)cn1` [A91]: the IC50 in experiment [1] and in experiment [2] was 1000 to 10000 nM throughout.
Consider `Cn1cc(-c2cnc3[nH]cc(-c4cc(C(C)(O)c5ccc(=O)n(C)n5)on4)c3c2)cn1` (centres unmarked) [A99, 6-(1-hydroxy-1-{3-[5-(1-methyl-1H-pyrazol-4-yl)-1H-pyrrolo-[2,3-b]pyridin-3-yl]isoxazol-5-yl}ethyl)-2-methyl-2H-pyridazin-3-one], for which the IC50 in experiment [1] is 0.5 to 1000 nM; in experiment [2] it was 1000 to 10000 nM.
